ChEMBL document CHEMBL1138433, “New indole alkaloids from the North Sea bacterium Vibrio parahaemolyticus Bio249” (J Nat Prod, 2003)
Calls of active or inactive are those of the source.

Experiments:
Assay type in all cases: functional, organism-based
Escherichia coli = assay: Antibacterial activity against Escherichia coli by agar diffusion method
Rhizomucor miehei = assay: Antifungal activity against Mucor miehei by agar diffusion method
Staphylococcus aureus = assay: Antibacterial activity against Staphylococcus aureus by agar diffusion method
Bacillus subtilis = assay: Antibacterial activity against Bacillus subtilis by agar diffusion method
[1] = tested on: Streptomyces viridochromogenes; assay: Antibacterial activity against Streptomyces viridochromogenes by agar diffusion method
Candida albicans = assay: Antifungal activity against Candida albicans by agar diffusion method

Measured: Activity

CC(CC(c1c[nH]c2ccccc12)c1c[nH]c2ccccc12)c1c[nH]c2ccccc12 (centres undefined)
inactive: all assays above

c1ccc2c(C(c3c[nH]c4ccccc34)c3c[nH]c4ccccc34)c[nH]c2c1
inactive: all assays above

CC(=O)C(C)(c1c[nH]c2ccccc12)c1c[nH]c2ccccc12
inactive: all assays above

c1ccc2c(Cc3c[nH]c4ccccc34)c[nH]c2c1
inactive: all assays above
